Measurements as given in patent US10441659B2, “Lipids for therapeutic agent delivery formulations” (Nitto Denko Corporation, priority 2012, dated 2019).

Assays:
gp46 mRNA in pHSC [1] = test: In vitro (pHSC) gp46 knockdown by siRNA liposome formulations, qRT-PCR; type: cell-based; details: @ 20 nM
Method: In Vitro (pHSC, Gp46 KD @ 20 nM) Efficacy
PHSCs in 96-well plate were incubated with formulation that composed of either ionizable lipid formulation C104, ionizable lipid formulation Tu104, or combination formulations with different ratio of ionizable lipids (C104:Tu104). After 30 minutes, medium was replaced with fresh growth medium. Forty eight hours later, cells were lysed and gp46 and GAPDH mRNA levels measured by quantitative RT-PCR (TaqMan®) assay, and gp46 levels were normalized to GAPDH levels. Normalized gp46 levels were expressed as percent of mock control cells. Error bars indicate standard deviations (n=3). Results are depicted in FIG. 1.
Transfection method is same for LX-2 and pHSCs. The liposome formulations or lipoplex formulations of the description were mixed with growth medium at desired concentrations. 100 μl of the mixture was added to the cells in 96-well plate and cells were incubated for 30 min at 37° C. in the incubator with 5% CO2. After 30 min, medium was replaced with fresh growth medium. After 48 h of transfection, cells were processed using Cell-to-Ct lysis reagents (Applied Biosystems) according to the manufacturer's instructions.
HSP47 and GAPDH TaqMan®® assays and One-Step RT-PCR master mix were purchased from Applied Biosystems. Each PCR reaction contained the following composition: One-step RT-PCR mix 5 μl, TaqMan® RT enzyme mix 0.25 μl, TaqMan® gene expression assay probe (HSP47) 0.25 μl, TaqMan® gene expression assay probe (GAPDH) 0.5 μl, RNase free water 3.25 μl, Cell lysate 0.75 μl, Total volume of 10 μl. GAPDH was used as endogenous control for the relative quantification of HSP47 mRNA levels. Quantitative RT-PCR was performed in ViiA 7 realtime PCR system (Applied Biosciences). All values were normalized to the average HSP47 expression of the mock transfected cells and expressed as percentage of HSP47 expression compared to mock.

gp46 mRNA in pHSC [2] = test: as above; type: cell-based
gp46 mRNA = test: In vivo (DMNQ) efficacy, short-term liver damage model, liver gp46 mRNA; set-up: species or system male Sprague-Dawley rats; details: single IV dose, liver 24 h after
Method: In vivo activity of target formulation was evaluated in the short-term liver damage model (referred to as the Quick Model or DMNQ). In this model, the short-term liver damage induced by treatment with a hepatotoxic agent such as dimethylnitrosamine (DMN) is accompanied by the elevation of gp46 mRNA levels. To induce these changes, male Sprague-Dawley rats were injected intraperitoneally with DMN on six consecutive days. At the end of the DMN treatment period, the animals were randomized to groups based upon individual animal body weight. Formulations was administered as a single IV dose, one hour after the last injection of DMN. Twenty four hours after, liver lobes were excised and both gp46 and MRPL19 mRNA levels were determined by quantitative RT-PCR (TaqMan) assay. mRNA levels for gp46 were normalized to MRPL19 levels. Results are depicted in FIG. 4. Several combinations of ionizable:cationic lipids achieved 50% reduction in gene expression for a single, 0.5 mg per kg of animal body weight, dose of encapsulated siRNA.

HepG2 cells = test: HepG2 cytotoxicity assay (CellTiter-Glo); type: cell-based, human; details: HepG2 @ 200 nM, 48 h post formulation addition, n=3
Method: In Vitro Toxicology Data, In Vitro Cytotoxicity (HepG2 @ 200 nM)
HepG2 cells, an adherent cell line derived from human hepatocellular carcinoma, was cultured in MEM/EBSS (Hyclone, Logan, Utah, Cat# SH30024.01) supplemented with 10% FBS (Hyclone, Logan, Utah Cat# SH30910). HepG2 cells were seeded in 96-well Optilux black plates (BD Falcon, Cat # BD353220) at 5000 cells/well overnight. Formulations were added to each well to final indicated siRNA concentration (n=3). At 48 h post formulation addition, cell viability was determined using CellTiter-Glo Luminescent Cell Viability Assay Kit (Promega, Cat #G7572) following manufacture's instruction. Chemiluminescent signal were measured on Clarity Luminescence Microplate Reader (502-Biotek, Winooski, Vt.). Viability was calculated based on % of chemiluminescent signal in formulation treated well normalized against mock treated wells.

In the case of `CCCCCCCC/C=C\CCCCCCCC(=O)OCCN(CCOC(=O)CCCCCCC/C=C\CCCCCCCC)C(=O)CCCCN(C)C` [C104-DO, (Z)-((5-(dimethylamino)pentanoyl)azanediyl)bis(ethane-2,1-diyl) dioleate], the “in vitro (pHSC) % KD” value (gp46 mRNA in pHSC [1]) is reported as 32% @ 20 nM.

With `CCCCCCCC/C=C\CCCCCCCC(=O)OCCCN(CCCOC(=O)CCCCCCC/C=C\CCCCCCCC)C(=O)CN(C)C` [i-Pr- DODC, (Z)-((2-(dimethylamino)acetyl)azanediyl)bis(propane-3,1-diyl) dioleate] the “in vitro (pHSC) % KD” value (gp46 mRNA in pHSC [2]; @ 50 nM) was 60% @ 50 nM.

`CCCCCCCCCCCCCC(=O)OCCN(CCOC(=O)CCCCCCCCCCCCC)C(=O)OCCCN(C)C` [CB104, (((3-(dimethylamino)propoxy)carbonyl)azanediyl)bis(ethane-2,1-diyl) ditetradecanoate] was tested, and the “in vitro (pHSC) % KD” value (gp46 mRNA in pHSC [1]) was 42% @ 20 nM.

In the case of `CCCCCCCC/C=C\CCCCCCCC(=O)OCCN(CCOC(=O)CCCCCCC/C=C\CCCCCCCC)C(=O)CCN(C)C` [i-Et- DODC, (Z)-((3-(dimethylamino)propanoyl)azanediyl)bis(ethane-2,1-diyl) dioleate], the “in vitro (pHSC) % KD” value (gp46 mRNA in pHSC [2]; @ 50 nM) is reported as 43% @ 50 nM.

For `CCCCCCCC/C=C\CCCCCCCC(=O)OCCN(CCOC(=O)CCCCCCC/C=C\CCCCCCCC)C(=O)CSCCN(C)C` [S104-DO, (Z)-((2-((2-(dimethylamino)ethyl)thio)acetyl)azanediyl)bis(ethane-2,1-diyl) dioleate], the “in vivo (rat DMNQ) % KD” value (gp46 mRNA; @ 0.5 mpk) was 65% @ 0.5 mpk and the “in vitro (pHSC) % KD” value (gp46 mRNA in pHSC [1]) was 78% @ 20 nM.

`CCCCCCCC/C=C\CCCCCCCC(=O)OCCN(CCOC(=O)CCCCCCC/C=C\CCCCCCCC)C(=O)CN(C)C` [INT-4, (Z)-((2-(dimethylamino)acetyl)azanediyl)bis(ethane-2,1-diyl) dioleate] was tested, and the “in vitro (pHSC) % KD” value (gp46 mRNA in pHSC [2]; @ 50 nM) was 70% @ 50 nM.

In the case of `CCCCCCCCCCCCCC(=O)OCCCN(CCCOC(=O)CCCCCCCCCCCCC)C(=O)CN(C)C` [i-Pr-DC, ((2-(dimethylamino)acetyl)azanediyl)bis(propane-3,1-diyl) ditetradecanoate], the “in vitro (pHSC) % KD” value (gp46 mRNA in pHSC [2]; @ 50 nM) is reported as 53% @ 50 nM.

In the case of `CCCCCCCCCCCCCC(=O)OCCN(CCOC(=O)CCCCCCCCCCCCC)C(=O)CSCCN(C)C` [Lipid S104, ((2-((2-(dimethylamino)ethyl)thio)acetyl)azanediyl)bis(ethane-2,1-diyl) ditetradecanoate], the “in vitro (pHSC) % KD” value (gp46 mRNA in pHSC [2]; @ 50 nM) is reported as 68% @ 50 nM, the “% viability” value (HepG2 cells) is reported as 52% and the “in vivo (rat DMNQ) % KD” value (gp46 mRNA; @ 0.5 mpk) is reported as 52% @ 0.5 mpk.

With `CCCCCCCCCCCCCC(=O)OCCN(CCOC(=O)CCCCCCCCCCCCC)C(=O)CCCCN(C)C` [Lipid C104, ((5-(dimethylamino)pentanoyl)azanediyl)bis(ethane-2,1-diyl) ditetradecanoate] the “in vivo (rat DMNQ) % KD” value (gp46 mRNA; @ 0.5 mpk) was 75% @ 0.5 mpk and the “in vitro (pHSC) % KD” value (gp46 mRNA in pHSC [1]) was 53% @ 20 nM.

In the case of `CCCCCCCCCCCCCC(=O)OCCN(CCOC(=O)CCCCCCCCCCCCC)C(=O)CS(=O)(=O)CCN(C)C` [SO2-S104, ((2-((2-(dimethylamino)ethyl)sulfonyl)acetyl)azanediyl)bis(ethane-2,1-diyl) ditetradecanoate], the “in vivo (rat DMNQ) % KD” value (gp46 mRNA; @ 0.5 mpk) is reported as 18% @ 0.5 mpk and the “in vitro (pHSC) % KD” value (gp46 mRNA in pHSC [1]) is reported as 75% @ 20 nM.

In the case of `CCCCCCCCCCCCCC(=O)OCCN(CCOC(=O)CCCCCCCCCCCCC)C(=O)CCCN(C)C` [i-Prop- DC, ((4-(dimethylamino)butanoyl)azanediyl)bis(ethane-2,1-diyl) ditetradecanoate], the “in vitro (pHSC) % KD” value (gp46 mRNA in pHSC [2]; @ 50 nM) is reported as 55% @ 50 nM and the “in vitro (pHSC) % KD” value (gp46 mRNA in pHSC [1]) is reported as 54% @ 20 nM.

With `CCCCCCCCCCCCCC(=O)OCCN(CCOC(=O)CCCCCCCCCCCCC)C(=O)CCN(C)C` [i-Et-DC, ((3-(dimethylamino)propanoyl)azanediyl)bis(ethane-2,1-diyl) ditetradecanoate] the “in vitro (pHSC) % KD” value (gp46 mRNA in pHSC [2]; @ 50 nM) was 65% @ 50 nM.

For `CCCC/C=C/CCCCCCCC(=O)OCCN(CCOC(=O)CCCCCCC/C=C/CCCC)C(=O)CSCCN(C)C` [S104-DMO, (9Z,9′Z)-((2-((2-(dimethylamino)ethyl)thio)acetyl)azanediyl)bis(ethane-2,1-diyl) bis(tetradec-9-enoate)], the “in vitro (pHSC) % KD” value (gp46 mRNA in pHSC [2]; @ 10 nM) was 40% @ 10 nM.

For `CCCCCCCCCCCCCC(=O)OCCN(CCOC(=O)CCCCCCCCCCCCC)C(=O)CN(C)C` [i-DC, ((2-(dimethylamino)acetyl)azanediyl)bis(ethane-2,1-diyl) ditetradecanoate], the “in vitro (pHSC) % KD” value (gp46 mRNA in pHSC [2]; @ 200 nM) was 89% @ 200 nM.

With `CCCCCCCC/C=C\CCCCCCCC(=O)OCCN(CCOC(=O)CCCCCCC/C=C\CCCCCCCC)C(=O)SCCN(C)C` [TU104-DO, (Z)-((((2-(dimethylamino)ethyl)thio)carbonyl)azanediyl)bis(ethane-2,1-diyl) dioleate] the “in vivo (rat DMNQ) % KD” value (gp46 mRNA; @ 0.25 mpk) was 40% @ 0.25 mpk and the “in vitro (pHSC) % KD” value (gp46 mRNA in pHSC [1]) was 81% @ 20 nM.

`CCCCCCCCCCCCCC(=O)OCCN(CCOC(=O)CCCCCCCCCCCCC)C(=O)COCCN(C)C` [Lipid O104, ((2-(2-(dimethylamino)ethoxy)acetyl)azanediyl)bis(ethane-2,1-diyl) ditetradecanoate] was tested, and the “in vitro (pHSC) % KD” value (gp46 mRNA in pHSC [1]) was 55% @ 20 nM.

For `CCCCCCCCCCCCCC(=O)OCCN(CCOC(=O)CCCCCCCCCCCCC)C(=O)COC(=O)CCCN(C)C` [HEDC- M1, ((2-((4-(dimethylamino)butanoyl)oxy)acetyl)azanediyl)bis(ethane-2,1-diyl) ditetradecanoate], the “in vitro (pHSC) % KD” value (gp46 mRNA in pHSC [1]) was 53% @ 20 nM.

In the case of `CCCCCCCC/C=C\CCCCCCCC(=O)OCCN(CCOC(=O)CCCCCCC/C=C\CCCCCCCC)C(=O)CCCN(C)C` [i-Prop- DODC, (Z)-((4-(dimethylamino)butanoyl)azanediyl)bis(ethane-2,1-diyl) dioleate], the “in vitro (pHSC) % KD” value (gp46 mRNA in pHSC [2]; @ 50 nM) is reported as 55% @ 50 nM and the “in vitro (pHSC) % KD” value (gp46 mRNA in pHSC [1]) is reported as 27% @ 20 nM.

With `CCCCCCCCCCCCCC(=O)OCCN(CCOC(=O)CCCCCCCCCCCCC)C(=O)c1ccc(CN(C)C)s1` [Lipid T104, ((5-((dimethylamino)methyl)thiophene-2-carbonyl)azanediyl)bis(ethane-2,1-diyl) ditetradecanoate] the “in vitro (pHSC) % KD” value (gp46 mRNA in pHSC [1]) was 58% @ 20 nM.

With `CCCCCCCCCCCCCC(=O)OCCN(CCOC(=O)CCCCCCCCCCCCC)C(=O)SCCN(C)C` [TU104, ((((2-(dimethylamino)ethyl)thio)carbonyl)azanediyl)bis(ethane-2,1-diyl) ditetradecanoate] the “in vitro (pHSC) % KD” value (gp46 mRNA in pHSC [1]) was 76% @ 20 nM.
